Columns and labels:
[1] = Selectivity index, ratio of CC50 for cytotoxicity against BALB/c mouse T cell to IC50 for antiproliferative activity against Con A-induced BALB/c mouse T cell; set-up: species or system T cell line
[2] = Cytotoxicity against BALB/c mouse T cell assessed as reduction in cell viability after 48 hrs by CCK8 assay; assay type: tissue-based, T cell line; conditions: BALB/c mouse T cells
[3] = Antiproliferative activity against Con A-induced BALB/c mouse T cell after 48 hrs by CCK8 assay; assay type: functional, tissue-based, T cell line

## CC1=C(O)C(=O)C=C2C1=CC=C1[C@@]2(C)CC[C@@]2(C)[C@@H]3C[C@](C)(C(=O)OCc4cccc(Br)c4)CC[C@]3(C)CC[C@]12C
[1]
  Ratio CC50/IC50: 1.7
[2]
  CC50 at 48 h: 1.8 µM
[3]
  IC50: 1.07 µM

## CC1=C(O)C(=O)C=C2C1=CC=C1[C@@]2(C)CC[C@@]2(C)[C@@H]3C[C@](C)(C(=O)NCc4ccccc4C)CC[C@]3(C)CC[C@]12C
[1]
  Ratio CC50/IC50: 3.6
[2]
  CC50 at 48 h: 1.1 µM
[3]
  IC50: 0.312 µM

## CC1=C(O)C(=O)C=C2C1=CC=C1[C@@]2(C)CC[C@@]2(C)[C@@H]3C[C@](C)(C(=O)OCC4CCCCC4)CC[C@]3(C)CC[C@]12C
[1]
  Ratio CC50/IC50: 1
[2]
  CC50 at 48 h: 1.3 µM
[3]
  IC50: 1.26 µM

## C#CCOC(=O)[C@]1(C)CC[C@]2(C)CC[C@]3(C)C4=C[C@@H](c5c[nH]c6ccc(OC)cc56)c5c(cc(OC(C)=O)c(OC(C)=O)c5C)[C@]4(C)CC[C@@]3(C)[C@@H]2C1
[2]
  CC50 at 48 h: ≥ 10 µM
[3]
  IC50: ≥ 10 µM

## CCCOC(=O)[C@]1(C)CC[C@]2(C)CC[C@]3(C)C4=CC=C5C(=CC(=O)C(O)=C5C)[C@]4(C)CC[C@@]3(C)[C@@H]2C1
[1]
  Ratio CC50/IC50: 1.3
[2]
  CC50 at 48 h: 1.2 µM
[3]
  IC50: 0.924 µM

## CC1=C(O)C(=O)C=C2C1=CC=C1[C@@]2(C)CC[C@@]2(C)[C@@H]3C[C@](C)(C(=O)NCc4ccccc4)CC[C@]3(C)CC[C@]12C
[1]
  Ratio CC50/IC50: 2.1
[2]
  CC50 at 48 h: 0.8 µM
[3]
  IC50: 0.362 µM

## COC(=O)[C@]1(C)CC[C@]2(C)CC[C@]3(C)C4=CC=C5C(=CC(=O)C(O)=C5C)[C@]4(C)CC[C@@]3(C)[C@@H]2C1 [PRISTIMERIN]
[1]
  Ratio CC50/IC50: 2
[2]
  CC50 at 48 h: 2.4 µM
[3]
  IC50: 1.2 µM

## C#CCOC(=O)[C@]1(C)CC[C@]2(C)CC[C@]3(C)C4=C[C@@H](c5c[nH]c6cc(Cl)ccc56)c5c(cc(OC(C)=O)c(OC(C)=O)c5C)[C@]4(C)CC[C@@]3(C)[C@@H]2C1
[2]
  CC50 at 48 h: 4.1 µM
[3]
  IC50: ≥ 10 µM

## CC1=C(O)C(=O)C=C2C1=CC=C1[C@@]2(C)CC[C@@]2(C)[C@@H]3C[C@](C)(C(=O)OCc4cccc(C)c4)CC[C@]3(C)CC[C@]12C
[2]
  CC50 at 48 h: 1.9 µM
[3]
  IC50: 1.6 µM

## C#CCOC(=O)[C@]1(C)CC[C@]2(C)CC[C@]3(C)C4=C[C@@H](c5c[nH]c6ccc(Cl)cc56)c5c(cc(OC(C)=O)c(OC(C)=O)c5C)[C@]4(C)CC[C@@]3(C)[C@@H]2C1
[2]
  CC50 at 48 h: ≥ 10 µM
[3]
  IC50: ≥ 10 µM

## CC1=C(O)C(=O)C=C2C1=CC=C1[C@@]2(C)CC[C@@]2(C)[C@@H]3C[C@](C)(C(=O)OCc4ccccc4)CC[C@]3(C)CC[C@]12C
[1]
  Ratio CC50/IC50: 1
[2]
  CC50 at 48 h: 1.1 µM
[3]
  IC50: 1.05 µM

## CC1=C(O)C(=O)C=C2C1=CC=C1[C@@]2(C)CC[C@@]2(C)[C@@H]3C[C@](C)(C(=O)NC(C)C)CC[C@]3(C)CC[C@]12C
[1]
  Ratio CC50/IC50: 6.9
[2]
  CC50 at 48 h: 0.8 µM
[3]
  IC50: 0.083 µM

## CCCNC(=O)[C@]1(C)CC[C@]2(C)CC[C@]3(C)C4=CC=C5C(=CC(=O)C(O)=C5C)[C@]4(C)CC[C@@]3(C)[C@@H]2C1
[1]
  Ratio CC50/IC50: 16.5
[2]
  CC50 at 48 h: 1.1 µM
[3]
  IC50: 0.064 µM

## C#CCOC(=O)[C@]1(C)CC[C@]2(C)CC[C@]3(C)C4=CC=C5C(=CC(=O)C(O)=C5C)[C@]4(C)CC[C@@]3(C)[C@@H]2C1
[1]
  Ratio CC50/IC50: 1.3
[2]
  CC50 at 48 h: 1.4 µM
[3]
  IC50: 1.12 µM

## CCOC(=O)[C@]1(C)CC[C@]2(C)CC[C@]3(C)C4=CC=C5C(=CC(=O)C(O)=C5C)[C@]4(C)CC[C@@]3(C)[C@@H]2C1
[1]
  Ratio CC50/IC50: 1.3
[2]
  CC50 at 48 h: 1.4 µM
[3]
  IC50: 0.82 µM

## CC1=C(O)C(=O)C=C2C1=CC=C1[C@@]2(C)CC[C@@]2(C)[C@@H]3C[C@](C)(C(=O)OCCBr)CC[C@]3(C)CC[C@]12C
[1]
  Ratio CC50/IC50: 1.6
[2]
  CC50 at 48 h: 1.1 µM
[3]
  IC50: 0.721 µM

## CC1=C(O)C(=O)C=C2C1=CC=C1[C@@]2(C)CC[C@@]2(C)[C@@H]3C[C@](C)(C(=O)O)CC[C@]3(C)CC[C@]12C [CELASTROL]
[1]
  Ratio CC50/IC50: 1.5
[2]
  CC50 at 48 h: 0.1 µM
[3]
  IC50: 0.083 µM

## C#CCOC(=O)[C@]1(C)CC[C@]2(C)CC[C@]3(C)C4=C[C@@H](c5c[nH]c6c(C)cccc56)c5c(cc(OC(C)=O)c(OC(C)=O)c5C)[C@]4(C)CC[C@@]3(C)[C@@H]2C1
[2]
  CC50 at 48 h: ≥ 10 µM
[3]
  IC50: ≥ 10 µM

## CC1=C(O)C(=O)C=C2C1=CC=C1[C@@]2(C)CC[C@@]2(C)[C@@H]3C[C@](C)(C(=O)OCc4ccccc4C)CC[C@]3(C)CC[C@]12C
[1]
  Ratio CC50/IC50: 1.6
[2]
  CC50 at 48 h: 1.7 µM
[3]
  IC50: 1.04 µM

## CC1=C(O)C(=O)C=C2C1=CC=C1[C@@]2(C)CC[C@@]2(C)[C@@H]3C[C@](C)(C(=O)N4CCCC4)CC[C@]3(C)CC[C@]12C
[1]
  Ratio CC50/IC50: 3.4
[2]
  CC50 at 48 h: 1.9 µM
[3]
  IC50: 0.323 µM

## C#CCOC(=O)[C@]1(C)CC[C@]2(C)CC[C@]3(C)C4=C[C@@H](c5c[nH]c6cc(F)ccc56)c5c(cc(OC(C)=O)c(OC(C)=O)c5C)[C@]4(C)CC[C@@]3(C)[C@@H]2C1
[2]
  CC50 at 48 h: ≥ 10 µM
[3]
  IC50: ≥ 10 µM

Source: ChEMBL document CHEMBL4665764, “Synthesis and Biological Evaluation of Celastrol Derivatives as Potential Immunosuppressive Agents” (J Nat Prod, 2020)
